This passage reports normalised inhibition (eCFP-eYFP dual reporter) results from the OligoGym collection.

Oligonucleotides are written 5' to 3', each unit as a sugar letter and its base; * is a phosphorothioate linkage, no mark a phosphodiester; rarer units and linkages stand in square brackets, end groups in braces. Plain capitals give the bases only. d = 2'-deoxy (DNA); r = 2'-OH (RNA)

This data set addresses UBE2S. Put plainly: reporter assay of Huesken 2005. Conditions: siRNA.
Note: test concentration or dose not given here.

Substance “sense rGrGrCrCrGrCrCrUrGrCrUrCrUrUrGrGrArGrAdTdT / antisense rUrCrUrCrCrArArGrArGrCrArGrGrCrGrGrCrCdCdG” displayed a normalised inhibition (eCFP-eYFP dual reporter) of 69.4%.

In turn, “sense rArCrGrArGrGrArGrGrCrGrGrGrCrCrGrCrCrUdTdT / antisense rArGrGrCrGrGrCrCrCrGrCrCrUrCrCrUrCrGrUdTdG” gave a normalised inhibition (eCFP-eYFP dual reporter) of 44.3%. The value for “sense rUrCrCrCrArArCrGrArGrGrArGrGrArCrCrUrCdTdT / antisense rGrArGrGrUrCrCrUrCrCrUrCrGrUrUrGrGrGrAdAdA” was 35.7%; that for “sense rArGrUrGrCrCrUrGrCrUrGrArUrCrCrArCrCrCdTdT / antisense rGrGrGrUrGrGrArUrCrArGrCrArGrGrCrArCrUdTdG” was 55.7%. The value for “sense rUrUrCrCrCrArArCrGrArGrGrArGrGrArCrCrUdTdT / antisense rArGrGrUrCrCrUrCrCrUrCrGrUrUrGrGrGrArAdAdG” was 41.6%. The value for “sense rCrCrArCrCrCrGrArUrGrGrCrArUrCrArArGrGdTdT / antisense rCrCrUrUrGrArUrGrCrCrArUrCrGrGrGrUrGrGdGdT” was 47.2%. “sense rArCrCrCrCrArUrArUrGrCrUrGrGrArGrGrUrCdTdT / antisense rGrArCrCrUrCrCrArGrCrArUrArUrGrGrGrGrUdCdC” showed a normalised inhibition (eCFP-eYFP dual reporter) of 49.9%. The value for “sense rArUrGrGrCrArUrCrArArGrGrUrCrUrUrUrCrCdTdT / antisense rGrGrArArArGrArCrCrUrUrGrArUrGrCrCrArUdCdG” was 56.5%; that for “sense rCrCrArCrCrCrArArGrGrGrCrUrArCrUrUrCrCdTdT / antisense rGrGrArArGrUrArGrCrCrCrUrUrGrGrGrUrGrGdGdG” was 54.7%. With “sense rGrUrGrGrGrCrGrCrCrArArUrGrGrCrGrArGrAdTdT / antisense rUrCrUrCrGrCrCrArUrUrGrGrCrGrCrCrCrArCdGdT”, the normalised inhibition (eCFP-eYFP dual reporter) was determined as 54.4%. The value for “sense rGrArGrGrGrCrCrCrUrGrArGrGrGrGrArCrCrCdTdT / antisense rGrGrGrUrCrCrCrCrUrCrArGrGrGrCrCrCrUrCdGdA” was 44.6%. The substance “sense rCrGrArGrUrCrUrGrCrArCrUrCrArArCrGrArGdTdT / antisense rCrUrCrGrUrUrGrArGrUrGrCrArGrArCrUrCrGdGdG” gave a normalised inhibition (eCFP-eYFP dual reporter) of 70.6%. The value for “sense rCrGrUrCrArArCrGrUrGrCrUrCrArArGrArGrGdTdT / antisense rCrCrUrCrUrUrGrArGrCrArCrGrUrUrGrArCrGdCdA” was 63.1%; that for “sense rArGrCrCrGrGrUrCrGrGrGrCrCrCrUrGrGrCrCdTdT / antisense rGrGrCrCrArGrGrGrCrCrCrGrArCrCrGrGrCrUdTdC” was 43%.

In turn, “sense rCrUrUrUrCrCrCrArArCrGrArGrGrArGrGrArCdTdT / antisense rGrUrCrCrUrCrCrUrCrGrUrUrGrGrGrArArArGdAdC” showed a normalised inhibition (eCFP-eYFP dual reporter) of 33.9%. Next, “sense rGrArGrGrGrGrCrUrGrArGrGrGrUrCrCrCrArUdTdT / antisense rArUrGrGrGrArCrCrCrUrCrArGrCrCrCrCrUrCdCdC”: 45%.

The substance “sense rGrCrArCrUrCrArArCrGrArGrGrArGrGrCrGrGdTdT / antisense rCrCrGrCrCrUrCrCrUrCrGrUrUrGrArGrUrGrCdAdG” registered a normalised inhibition (eCFP-eYFP dual reporter) of 48.5%. Next, “sense rCrArArGrUrGrCrCrUrGrCrUrGrArUrCrCrArCdTdT / antisense rGrUrGrGrArUrCrArGrCrArGrGrCrArCrUrUrGdAdT”: 63.5%. Next, “sense rArGrUrArUrGrCrArGrCrUrCrGrGrGrCrCrCrGdTdT / antisense rCrGrGrGrCrCrCrGrArGrCrUrGrCrArUrArCrUdCdC”: 49.8%; “sense rUrGrGrCrGrArGrArUrCrUrGrCrGrUrCrArArCdTdT / antisense rGrUrUrGrArCrGrCrArGrArUrCrUrCrGrCrCrAdTdT”: 85.6%.

“sense rArGrGrArCrUrUrCrCrCrUrGrCrCrUrCrCrCrCdTdT / antisense rGrGrGrGrArGrGrCrArGrGrGrArArGrUrCrCrUdTdC”: the normalised inhibition (eCFP-eYFP dual reporter) was determined as 55.2%. Next, “sense rGrCrCrCrArGrCrGrGrCrArGrGrGrCrCrGrArAdTdT / antisense rUrUrCrGrGrCrCrCrUrGrCrCrGrCrUrGrGrGrCdCdC”: 42%; “sense rCrUrGrGrCrGrArGrCrGrCrGrArUrArArGrArAdTdT / antisense rUrUrCrUrUrArUrCrGrCrGrCrUrCrGrCrCrArGdCdA”: 82.4%; “sense rGrUrCrArCrCrArUrCrGrArGrGrGrCrCrCrUrGdTdT / antisense rCrArGrGrGrCrCrCrUrCrGrArUrGrGrUrGrArCdCdT”: 45.1%. “sense rGrGrGrCrCrGrArArGrCrCrGrGrUrCrGrGrGrCdTdT / antisense rGrCrCrCrGrArCrCrGrGrCrUrUrCrGrGrCrCrCdTdG” showed a normalised inhibition (eCFP-eYFP dual reporter) of 36.4%. The value for “sense rGrGrGrCrUrGrArGrGrGrUrCrCrCrArUrGrGrCdTdT / antisense rGrCrCrArUrGrGrGrArCrCrCrUrCrArGrCrCrCdCdT” was 45.7%; that for “sense rGrCrCrUrGrCrUrCrUrUrGrGrArGrArArCrUrAdTdT / antisense rUrArGrUrUrCrUrCrCrArArGrArGrCrArGrGrCdGdG” was 76%. The value for “sense rUrCrCrCrCrArCrCrCrArArGrGrGrCrUrArCrUdTdT / antisense rArGrUrArGrCrCrCrUrUrGrGrGrUrGrGrGrGrAdGdG” was 48.9%; that for “sense rCrUrGrCrGrUrCrArArCrGrUrGrCrUrCrArArGdTdT / antisense rCrUrUrGrArGrCrArCrGrUrUrGrArCrGrCrArGdAdT” was 67.8%; that for “sense rUrCrArCrCrArUrCrGrArGrGrGrCrCrCrUrGrAdTdT / antisense rUrCrArGrGrGrCrCrCrUrCrGrArUrGrGrUrGrAdCdC” was 35.9%. Next, “sense rCrGrGrUrCrGrGrGrCrCrCrUrGrGrCrCrArGrUdTdT / antisense rArCrUrGrGrCrCrArGrGrGrCrCrCrGrArCrCrGdGdC”: 41.5%; “sense rCrCrCrGrUrCrUrGrCrUrCrArCrArGrArGrArUdTdT / antisense rArUrCrUrCrUrGrUrGrArGrCrArGrArCrGrGrGdCdC”: 70.1%; “sense rArUrGrCrUrGrGrCrGrArGrCrGrCrGrArUrArAdTdT / antisense rUrUrArUrCrGrCrGrCrUrCrGrCrCrArGrCrArUdGdC”: 71.3%. Turning to “sense rGrGrCrUrArCrUrUrCrCrUrGrArCrCrArArGrAdTdT / antisense rUrCrUrUrGrGrUrCrArGrGrArArGrUrArGrCrCdCdT”, the normalised inhibition (eCFP-eYFP dual reporter) turned out to be 91.7%. The value for “sense rGrGrCrArUrCrArArGrGrUrCrUrUrUrCrCrCrAdTdT / antisense rUrGrGrGrArArArGrArCrCrUrUrGrArUrGrCrCdAdT” was 57.3%; that for “sense rArGrCrUrUrCrCrUrCrCrArCrCrGrArCrCrCrUdTdT / antisense rArGrGrGrUrCrGrGrUrGrGrArGrGrArArGrCrUdTdC” was 49.4%.

On to “sense rUrCrUrGrUrUrCrCrGrCrArUrGrArArArCrUrCdTdT / antisense rGrArGrUrUrUrCrArUrGrCrGrGrArArCrArGrAdCdC”, for which the normalised inhibition (eCFP-eYFP dual reporter) worked out at 42.3%. The value for “sense rArGrGrGrCrCrGrArArGrCrCrGrGrUrCrGrGrGdTdT / antisense rCrCrCrGrArCrCrGrGrCrUrUrCrGrGrCrCrCrUdGdC” was 49.1%.

On to “sense rUrCrCrArCrCrCrUrArArCrCrCrCrGrArGrUrCdTdT / antisense rGrArCrUrCrGrGrGrGrUrUrArGrGrGrUrGrGrAdTdC”, for which the normalised inhibition (eCFP-eYFP dual reporter) was found to be 39.4%. Substance “sense rArArCrUrArCrGrArGrGrArGrUrArUrGrCrArGdTdT / antisense rCrUrGrCrArUrArCrUrCrCrUrCrGrUrArGrUrUdCdT” had a normalised inhibition (eCFP-eYFP dual reporter) of 40%. Consider “sense rGrArCrArCrGrUrArCrUrGrCrUrGrArCrCrArUdTdT / antisense rArUrGrGrUrCrArGrCrArGrUrArCrGrUrGrUrCdGdG”, for which the normalised inhibition (eCFP-eYFP dual reporter) was determined as 85.5%. The substance “sense rGrGrGrCrCrCrUrGrGrCrCrArGrUrGrGrCrArCdTdT / antisense rGrUrGrCrCrArCrUrGrGrCrCrArGrGrGrCrCrCdGdA” came in with a normalised inhibition (eCFP-eYFP dual reporter) of 43%. The value for “sense rGrUrArUrGrCrArGrCrUrCrGrGrGrCrCrCrGrUdTdT / antisense rArCrGrGrGrCrCrCrGrArGrCrUrGrCrArUrArCdTdC” was 47%; that for “sense rUrGrArArArCrUrCrCrUrGrCrUrGrGrGrGrArAdTdT / antisense rUrUrCrCrCrCrArGrCrArGrGrArGrUrUrUrCrAdTdG” was 54%.

In turn, “sense rUrGrCrGrUrCrArArCrGrUrGrCrUrCrArArGrAdTdT / antisense rUrCrUrUrGrArGrCrArCrGrUrUrGrArCrGrCrAdGdA” showed a normalised inhibition (eCFP-eYFP dual reporter) of 74.5%. The value for “sense rCrCrUrGrCrUrCrUrUrGrGrArGrArArCrUrArCdTdT / antisense rGrUrArGrUrUrCrUrCrCrArArGrArGrCrArGrGdCdG” was 70.7%; that for “sense rGrArGrUrArUrGrCrArGrCrUrCrGrGrGrCrCrCdTdT / antisense rGrGrGrCrCrCrGrArGrCrUrGrCrArUrArCrUrCdCdT” was 53.4%; that for “sense rCrUrGrCrUrCrArCrArGrArGrArUrCrCrArCrGdTdT / antisense rCrGrUrGrGrArUrCrUrCrUrGrUrGrArGrCrArGdAdC” was 54.8%.

As to “sense rCrCrGrArArCrGrUrGrGrGrCrGrCrCrArArUrGdTdT / antisense rCrArUrUrGrGrCrGrCrCrCrArCrGrUrUrCrGrGdGdT”, the normalised inhibition (eCFP-eYFP dual reporter) came out at 44.9%.
